Measured values published in patent publication US8314075B2, “Compositions and methods for inhibiting expression of huntingtin gene” (Alynylam Pharmaceuticals, Inc., priority 2005, dated 2012).

Tested on: Huntingtin mRNA
Assay: In vivo down-modulation of endogenous HD mRNA by continuous intrastriatal infusion in rats
Set-up: species or system rat
Settings: 1.3 mg over 7 days (0.5 uL/hr at 1.1 mM); for reduction of normalized Huntingtin mRNA level in cortical tissue: cortex; for reduction of normalized Huntingtin mRNA level in striatal tissue relative to the PBS control group: ipsilateral striatum
Method: In rats, 1.3 mg AL-DP-1997 or AL-DP-1998, or phosphate-buffered saline (PBS, vehicle control) was administered by continuous intrastriatal infusion over 7 days. Male Sprague-Dawley rats, approximately 250-300 g body weight, received stereotaxic implantation of 30-gauge infusion cannulae (Plastics One, Roanok, Va.) such that unilateral injections were targeted to the center of the striatum (anteroposterior+0.7 mm, mediolateral+3.0 mm, relative to bregma; dorsoventral 5 mm, relative to skull surface). Mini-osmotic pumps (model 1007D) were primed overnight according to the manufacturer's specifications, implanted subcutaneously, and connected via catheters, to deliver (4 rats per treatment group) PBS, 1.1 mM AL-DP-1997 or 1.1 mM AL-DP-1998 at 0.5 uL/hr over 7 days. At the end of the 7 day infusion period, animals were sacrificed, brains were removed, and ipsilateral striata encompassing the infusion site were flash frozen. Tissue samples of about 5-30 mg each were homogenized by sonication (BANDELIN electronic GmbH & Co. KG, Berlin, Germany) in Tissue and Cell Lysis solution (Epicentre, Madison, Wis.) containing 84 μg/ml Proteinase K (Epicentre, Madison, Wis.). Lysates were then stored at −80° C. For carrying out the bDNA assay, frozen lysates were thawed at room temperature, and Huntingtin and GAPDH mRNA were quantified using the Quantigene Explore Kit according to the manufacturer's instructions. For each tissue sample, the ratio of Huntingtin/GAPDH (normalized Huntingtin mRNA level) was calculated as an average of four determinations. These ratios were then averaged to obtain a group (treatment) average. The unconjugated dsRNA, AL-DP-1997, reduced the normalized Huntingtin mRNA level by 33%, relative to the PBS control group, whereas the cholesterol-conjugated dsRNA, AL-DP-1998, reduced the normalized Huntingtin mRNA level by 26%, relative to the PBS control group. Both reductions were statistically significant (p<0.05, ANOVA with Tukey post-hoc analysis).
With an identical experimental paradigm, AL-DP-5997 and AL-DP-6000 were also found to be effective in vivo in down-modulating HD mRNA levels after intrastriatal infusion with 1.3 mg over 7 days (0.5 uL/hr at 1.1 mM) in rats. AL-DP-5997 and AL-DP-6000 reduced the normalized Huntingtin mRNA levels in striatal tissue by 34% and 36%, respectively, relative to the PBS control group. In addition, AL-DP-5997 and AL-DP-6000 reduced the normalized Huntingtin mRNA levels in cortical tissue by 22% and 26% respectively.

Row | Substance | reduction of normalized Huntingtin mRNA level in cortical tissue [%] | reduction of normalized Huntingtin mRNA level in striatal tissue relative to the PBS control group [%]
1 | AL-DP-6000: dsRNA targeting HD with 2'-O-methyl modifications; sense SEQ ID NO: 798, antisense SEQ ID NO: 799 (sense UCCUGCUUUAGUCGAGAACTT; antisense GUUCUCGACUAAAGCAGGATT; 2'-O-methyl modified, pattern not given here) | 26 | 36
2 | AL-DP-5997: dsRNA targeting HD with 2'-O-methyl modifications; sense SEQ ID NO: 792, antisense SEQ ID NO: 793 (sense GUCACAAAGAACCGUGCAGTT; antisense CUGCACGGUUCUUUGUGACTT; 2'-O-methyl modified, pattern not given here) | 22 | 34
